{"source": "patent US20050244959A1", "about": "“Methods for inducing active hepatocytes proliferation, kits using such methods and uses of said kits” (priority 2004, published 2005)", "key": {"[1]": {"test_system": "rat hepatocytes in coculture", "assay": "Inhibition of extracellular matrix remodeling: hepatocyte DNA synthesis in coculture", "format": "cell-based", "settings": "phenanthroline 1 μM added to cocultures treated with EGF for 24 h and then with TNFα", "method": "(§1) Hepatocyte DNA synthesis is measured by using BrdU (bromodeoxyuridine) labeling. BrdU incorporation in DNA is detected by immunohistochemistry using the Cell Proliferation Kit (Amersham). The number of labeled hepatocytes is determined (5 fields per dish) in order to calculate the percentage of BrdU incorporation.\n7 day-old cocultures are stimulated with EGF and then with TNFα for 24 h periods. Factors are added in a FCS-free medium. Inhibition of extracellular matrix degradation is induced with 1,10-Phenanthroline monohydrate (Sigma), a chelator of metal ions which inhibits the metalloproteinase activity. This compound is soluble in dimethylsulfoxyde and is used at 1 μM."}, "human hepatocytes": {"test_system": "human hepatocytes", "assay": "DNA synthesis by BrdU incorporation in pure culture of human hepatocytes", "format": "cell-based", "settings": "stimulated 24 h after seeding for 48 h", "method": "Freshly isolated hepatocytes are seeded on plastic dishes at 5×10^4 cells per cm2 in a William's E medium (Eurobio) supplemented with 2 mM L-glutamine (Gibco), 0,1% bovine serum albumin (BSA, Sigma), 100 μg/ml streptomycin, 100 Ul/ml penicillin (Eurobio), 50 μg/ml gentamycine (Sigma), 5 μg/ml bovine insulin (Sigma), and 10% fetal calf serum (HyClone).\nTwenty four hours after seeding, human hepatocytes are stimulated with recombinant human TNFα (Promokine, 10 ng/ml) and recombinant human EGF (Promega, 50 ng/ml). These factors are added in William's E medium (Eurobio) supplemented with 2 mM L-glutamine (Gibco), 0,1% bovine serum albumin (BSA, Sigma), 100 μg/ml streptomycin, 100 Ul/ml penicillin (Eurobio), 50 μg/ml gentamycine (Sigma), 5 μg/ml bovine insulin (Sigma), 1.4×10^-6 M hydrocortisone hemisuccinate (Roussel), 10% fetal calf serum. This medium is renewed every day and stimulation lasts at least 2 days.\nBrdU is incubated in medium during the last 24 h of treatment. Then pure cultures are fixed with a mixture of 90% ethanol, 5% acid acetic and 5% water for 20 min at 4° C. BrdU incorporation in DNA is detected by immunohistochemistry using the Cell Proliferation kit (Amersham). Next, cytoplasm and nuclei are stained in blue with Hemalun (Merck). The numbers of labeled hepatocytes are determined (5 fields per dish) in order to calculate percentage of BrdU incorporation."}, "[2]": {"test_system": "cyclin D1, EF21, cyclin E, Cdk1", "assay": "Expression of cell cycle markers in coculture", "format": "cell-based, rat", "settings": "successive 24 h treatments", "method": "A test is provided to analyze the mechanism of cell cycle blockage or progression (early G1, Late G1, S and M) induced by drugs by studying the expression of cell cycle markers which sign different steps of cell cycle (cyclin D1, E2 F1, Cdk2, cyclin E, Cdk1, cyclin B, PCNA, alpha tubulin). Successive 24 h treatments of cocultures by molecules added alone or in combination with EGF or TNFα are used to determine the effect of each molecule.\nCells are arrested at each time (24 and 48 h) and protein extracts are prepared and separated in SDS-polyacrylamide gel. Cell cycle markers are analyzed by western blot using corresponding antibodies."}, "extracellular matrix": {"test_system": "extracellular matrix", "assay": "Extracellular matrix deposition analysis (reticulin staining) in coculture", "format": "cell-based, rat", "settings": "7 day-old cocultures", "method": "Matrix fibers are visualized in cocultures fixed with a mixture of 4% paraformaldehyde and 2.5% glutaraldehyde in 0.1 M cacodylate buffer (pH 7.4) for 15 min at 4° C. Then the reticulin staining by silver impregnation of extracellular matrix is carried out according to the method of Gordon and Sweets and applied to coculture (Exp Cell Res 1984; J Cell Biol 1991). Matrix components are analysed by immunostaining using antibodies against fibronectin, collagen I, collagen III)"}, "[3]": {"test_system": "rat hepatocytes in coculture with rat biliary epithelial cells (RLEC)", "assay": "Hepatocyte DNA synthesis by BrdU labeling in rat hepatocyte/RLEC coculture", "format": "cell-based", "method": "Freshly isolated hepatocytes are seeded on plastic dishes at 7×10^4 cells per cm2 in a mixture of 75% minimal essential medium and 25% 199 medium (Eurobio), supplemented with 2 mM L-glutamine, 0,1% bovine serum albumin (BSA, Sigma), 100 μg/ml streptomycin, 100 Ul/ml penicillin, 5 μg/ml bovine insulin (Sigma), 1.4×10^-6 M hydrocortisone hemisuccinate (Roussel) and 10% fetal calf serum (Hyclone). This medium is called “basal medium”.\nAfter cell adhesion, approximately 4 hours after seeding, RLEC, previously trypsinized, are added on spread hepatocytes at 2×10^5 cells per cm2 in basal medium.\nTwenty four hours later, the medium is removed and replaced by a medium supplemented in 7×10^-5 M hydrocortisone hemisuccinate, which promotes hepatocyte differentiation and survival. This medium is renewed everyday for 4 days. Then, the concentration of hydrocortisone hemisuccinate is decreased to 7×10^-6 M for 2 days.\n7 day-old cocultures are stimulated with human recombinant EGF (50 ng/ml, Promega) and human recombinant TNF-alpha (10 ng/ml, Promokine) in basal medium for 3 to 10 days. The medium is renewed everyday. As control, cocultures exposed to TNFα alone or EGF are used.\nTo induce several rounds of hepatocyte proliferation, 7 day-old cocultures are stimulated with human recombinant EGF (50 ng/ml) and human recombinant TNFα (10 ng/ml) in basal medium, for 10 days. Then, a pause in stimulation is performed for 4 days, during which cells are maintained in medium supplemented in 7×10^-6 M hydrocortisone hemisuccinate. Next, cocultures are treated with EGF and TNFα in basal medium for 10 days.\nas §1"}, "pro-MMP9": {"test_system": "pro-MMP9", "assay": "Gelatin zymography of coculture supernatant", "format": "cell-based, rat", "settings": "FCS-free medium, 24 h", "method": "7 day-old cocultures are stimulated with different combinations of TNFα and/or EGF in a FCS-free medium for 24 h. Twenty μl of supernatant are electrophoresed under nonreducing conditions on 12% SDS-polyacrylamide gel containing 0,1% bovine skin gelatin (Sigma) as substrate. After electrophoresis, the gel is washed twice with 2.5% Triton X-100 for 10 min and twice with water for 20 min. After incubation overnight at 37° C. in reaction buffer (50 mM Tris-HCL, pH 8; 5 mM CaCl2; 5 μM ZnCl2), the gel is stained with Coomassie Brillant Blue and destained. Clear zones in blue background indicate the presence of metalloproteinase pro-MMP9 activity; 5% FCS is used as positive control."}}, "data": [{"compound": "O.c1cnc2c(c1)ccc1cccnc12", "note": "[phenanthroline, 1,10-Phenanthroline monohydrate]", "values": [{"measurement": "DNA synthesis", "setting": "[1]", "value": "strongly decreased"}]}, {"compound": "EGF: human recombinant EGF (50 ng/ml, Promega), growth factor", "values": [{"measurement": "hepatocytes with DNA synthesis (S phase entry)", "setting": "human hepatocytes", "value": 8, "unit": "%"}, {"measurement": "effect on hepatocyte cell cycle progression", "setting": "[2]", "value": "promotes hepatocyte cell cycle progression to late G1"}, {"measurement": "extracellular matrix (ECM) deposition", "setting": "extracellular matrix", "value": "very abundant"}, {"measurement": "BrdU incorporation under permanent exposure", "setting": "[3]; continued after a first 10 day-stimulation with TNFα/EGF, from day 10", "value": "gradually decreases"}, {"measurement": "Pro-MMP9 (92 Kda) expression by zymography", "setting": "pro-MMP9", "value": "not detected"}]}, {"compound": "TGFα: transforming growth factor alpha (20 ng/ml), replacing EGF", "values": [{"measurement": "DNA synthesis when EGF is replaced by another growth factor", "setting": "[3]; with TNFα, HGF 25 ng/ml, TGFα 20 ng/ml, compared with TNFα/EGF", "value": "highest DNA synthesis"}]}, {"compound": "TNFα", "values": [{"measurement": "effect on hepatocyte cell cycle progression", "setting": "[2]", "value": "allows S entry through Cdk1 induction"}, {"measurement": "extracellular matrix (ECM) deposition", "setting": "extracellular matrix", "value": "very sparse"}, {"measurement": "Pro-MMP9 (92 Kda) expression by zymography", "setting": "pro-MMP9", "value": "expressed"}]}, {"compound": "interleukin 6: cytokine known to modulate extracellular matrix remodeling, used at 5 ng/ml", "values": [{"measurement": "hepatocyte response to growth factors (DNA replication)", "setting": "[3]; coculture, 5 ng/ml", "value": "allow hepatocytes to respond to growth factors"}]}]}
